Experimental findings from paper PMC5944969, “Characterization of a nontypeable Haemophilus influenzae thermonuclease” (PLoS ONE, 2018) are described below.

The target of assay [1] is T1, NTHi Nuc (Haemophilus influenzae, UniProt Q57519).
T1 construct: gene HI_1296; N-terminal 6xHis tag (pET151/D-TOPO) cleaved with TEV protease; E. coli BL21*(DE3)
In words: FRET nuclease assay, Cy3/BHQ2 single-stranded 30-mer DNA. In kind it is biochemical. The note with it: competitive (stated); pdTp 0.015 and 0.03 nM; enzyme 0.035 nM; 2 µM FRET substrate; 26 °C.

In assay [2] the target is T1, NTHi Nuc. Put plainly: thermal unfolding by dynamic light scattering. In kind it is binding. The note with it: pH 7; excess pdTp; onset temperature with ligand, not a shift; ramp 1.0 °C/min. An excerpt:
thermal unfolding by dynamic light scattering on NTHi Nuc

Each structure is given as a SMILES string.

T1 sequence (Q57519 21-178): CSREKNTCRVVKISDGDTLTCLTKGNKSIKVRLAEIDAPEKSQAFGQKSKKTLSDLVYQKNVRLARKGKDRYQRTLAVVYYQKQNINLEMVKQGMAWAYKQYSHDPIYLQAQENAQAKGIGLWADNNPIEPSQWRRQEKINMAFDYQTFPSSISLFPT

Consider `Cc1cn([C@H]2C[C@H](OP(=O)(O)O)[C@@H](COP(=O)(O)O)O2)c(=O)[nH]c1=O` [thymidine 3,5-bisphosphate], for which the “FRET nuclease assay, Cy3/BHQ2 single-stranded 30-mer DNA” value at NTHi Nuc [1] is “Half and equimolar concentrations of pdTp impacted initial rates of endonuclease activity”. Besides, at NTHi Nuc [2], the Tonset came out at 48.1 ± 1.45 °C.
